Data published in patent EP0620225B1, “Cephalosporin derivatives” (Basilea Pharmaceutica AG, priority 1993, dated 1994).
Converted amounts (≈) assume the structure as drawn.

Assays:
S.aureus Smith = assay: Efficacy against systemic infections (septicemia) in mice; format: in vivo; settings: Staphylococcus aureus, 96 h, sc 1 and 3 h after challenge, survival day 4
Experimental: (§1) Septicemia was induced in outbred Swiss albino mice (Jbm MoRo [specific pathogen free]; weight 16 to 20 g, Biomedical Research Laboratories, Füllinsdorf, Switzerland). Mice were infected by intraperitoneal injection of diluted overnight cultures of the test organisms. Bacterial challenge doses were 4-10 times the number of organisms required to kill 50% of untreated animals within 48 h. The test compounds were administered p.o. or s.c. 1 and 3 h after the bacterial challenge. To treat the infection with Pseudomonas aeruginosa BA an additional dose was given 5 h after challenge. Control and treatment groups at each dose were composed of five mice each. The 50% effective dose (ED50, in milligrams per kilogram) was calculated by probit analysis as described by Finney (Finney, D.J. 1978, Statistical method in biological assay, 3rd ed. Charles Griffin & Co., Ltd., London), from the survival rates on day 4 after infection.

E.faecalis [1] = assay: In vitro activity against selected species (MIC50, MIC90, range); format: cell-based; settings: Enterococcus faecalis, medium MHA; for MIC: MIC range
Experimental: (§2) In vitro activity was determined by minimum inhibitory concentration in a microorganism spectum by the agar dilution method in Mueller Hinton agar.

S.aureus MRSA = assay: as above; format: cell-based; settings: Staphylococcus aureus, medium MHA (Mueller Hinton Agar) +NaCl; for MIC: MIC range
Experimental: as §2

M.morganii 6H-137 = assay: Antibacterial spectrum (MIC), agar dilution; format: cell-based; settings: Morganella morganii, 6H137, read-out: MIC
Experimental: as §2

S.aureus 6538 = assay: Antibacterial spectrum (MIC), agar dilution; format: cell-based; settings: Staphylococcus aureus, read-out: MIC
Experimental: as §2

E.cloacae 908SSi = assay: Antibacterial spectrum (MIC), agar dilution; format: cell-based; settings: Enterobacter cloacae, read-out: MIC
Experimental: as §2

P.vulgaris 1028 = assay: Antibacterial spectrum (MIC), agar dilution; format: cell-based; settings: Proteus vulgaris, read-out: MIC
Experimental: as §2

S.viridans group 016 = assay: Antibacterial spectrum (MIC), agar dilution; format: cell-based; settings: Streptococcus viridans, read-out: MIC
Experimental: as §2

S.aureus 734 MRSA = assay: Antibacterial spectrum (MIC), agar dilution; format: cell-based; settings: Staphylococcus aureus, read-out: MIC
Experimental: as §2

S.marcescens 69438 = assay: Antibacterial spectrum (MIC), agar dilution; format: cell-based; settings: Serratia marcescens, read-out: MIC
Experimental: as §2

Acinetobacter sp.51-156 = assay: Antibacterial spectrum (MIC), agar dilution; format: cell-based; settings: SP.51156, read-out: MIC
Experimental: as §2

C.freundii 43 = assay: Antibacterial spectrum (MIC), agar dilution; format: cell-based; settings: Citrobacter freundii, read-out: MIC
Experimental: as §2

C.freundii 902 = assay: Antibacterial spectrum (MIC), agar dilution; format: cell-based; settings: Citrobacter freundii, read-out: MIC
Experimental: as §2

X.maltophilia 1AC739 = assay: Antibacterial spectrum (MIC), agar dilution; format: cell-based; settings: Stenotrophomonas maltophilia, read-out: MIC
Experimental: as §2

E.cloacae 908R = assay: Antibacterial spectrum (MIC), agar dilution; format: cell-based; settings: Enterobacter cloacae, read-out: MIC
Experimental: as §2

E.faecalis 6 = assay: Antibacterial spectrum (MIC), agar dilution; format: cell-based; settings: Enterococcus faecalis, read-out: MIC
Experimental: as §2

M.catarrhalis RA21 = assay: Antibacterial spectrum (MIC), agar dilution; format: cell-based; settings: Moraxella catarrhalis, read-out: MIC
Experimental: as §2

E.coli 25922 = assay: Antibacterial spectrum (MIC), agar dilution; format: cell-based; settings: Escherichia coli, read-out: MIC
Experimental: as §2

S.pneumoniae Q19 = assay: Antibacterial spectrum (MIC), agar dilution; format: cell-based; settings: Streptococcus pneumoniae, read-out: MIC
Experimental: as §2

K.pneumoniae 418 = assay: Antibacterial spectrum (MIC), agar dilution; format: cell-based; settings: Klebsiella pneumoniae, read-out: MIC
Experimental: as §2

P.mirabilis 2117 = assay: Antibacterial spectrum (MIC), agar dilution; format: cell-based; settings: Proteus mirabilis, read-out: MIC
Experimental: as §2

H.influenzae 1 = assay: Antibacterial spectrum (MIC), agar dilution; format: cell-based; settings: Haemophilus influenzae, read-out: MIC
Experimental: as §2

N.meningitidis 69480 = assay: Antibacterial spectrum (MIC), agar dilution; format: cell-based; settings: Neisseria meningitidis, read-out: MIC
Experimental: as §2

S.pyogenes B15 = assay: Antibacterial spectrum (MIC), agar dilution; format: cell-based; settings: Streptococcus pyogenes, read-out: MIC
Experimental: as §2

P.aeruginosa 27853 = assay: Antibacterial spectrum (MIC), agar dilution; format: cell-based; settings: Pseudomonas aeruginosa, read-out: MIC
Experimental: as §2

S.agalactiae QK44 = assay: Antibacterial spectrum (MIC), agar dilution; format: cell-based; settings: Streptococcus agalactiae, read-out: MIC
Experimental: as §2

Escherichia coli 25922 = assay: Efficacy against systemic infections (septicemia) in mice; format: in vivo; settings: 96 h, survival day 4
Experimental: as §1

S.aureus MSSA = assay: In vitro activity against selected species (MIC50, MIC90, range); format: cell-based; settings: Staphylococcus aureus, medium MHB (Mueller Hinton Broth)
S.viridans group = assay: as above; format: cell-based; settings: Streptococcus viridans
S.pneumoniae PEN-R = assay: as above; format: cell-based; settings: Streptococcus pneumoniae; for MIC: MIC range
E.faecalis [2] = assay: as above; format: cell-based; settings: Enterococcus faecalis, medium IsoB
M.catarrhalis = assay: as above; format: cell-based; settings: Moraxella catarrhalis, medium IsoB
E.faecium = assay: In vitro activity against selected species (MIC50, range); format: cell-based; settings: Enterococcus faecium, medium MHA
Experimental: as §2

[3] = medium IsoB (Isosensitest Broth)

SMILES: Nc1nc(/C(=N/O)C(=O)N[C@@H]2C(=O)N3C(C(=O)O)=C(/C=C4\CCN(c5ccccc5)C4=O)CS[C@H]23)cs1 [H]
- ED50 (S.aureus Smith): < 0.5 mg/kg
- MIC (E.faecalis [1]): 0.5 to 16 µg/mL (≈ 0.925 to 29.6 µM)
- MIC50 (E.faecalis [1]): 1 µg/mL (≈ 1.85 µM)
- MIC90 (E.faecalis [1]): 1 µg/mL (≈ 1.85 µM)
- MIC (S.aureus MRSA): 16 to 32 µg/mL (≈ 29.6 to 59.2 µM)
- MIC50 (S.aureus MRSA): 16 µg/mL (≈ 29.6 µM)
- MIC90 (S.aureus MRSA): 16 µg/mL (≈ 29.6 µM)
- MIC (M.morganii 6H-137): ≤ 0.06 µg/mL
- MIC (S.aureus 6538): 0.5 µg/mL (≈ 0.925 µM)
- MIC (E.cloacae 908SSi): 0.5 µg/mL (≈ 0.925 µM)
- MIC (P.vulgaris 1028): 2 µg/mL (≈ 3.7 µM)
- MIC (S.viridans group 016): 1 µg/mL (≈ 1.85 µM)
- MIC (S.aureus 734 MRSA): 8 µg/mL (≈ 14.8 µM)
- MIC (S.marcescens 69438): 1 µg/mL (≈ 1.85 µM)
- MIC (Acinetobacter sp.51-156): 32 µg/mL (≈ 59.2 µM)
- MIC (C.freundii 43): 4 µg/mL (≈ 7.4 µM)
- MIC (C.freundii 902): 0.5 µg/mL (≈ 0.925 µM)
- MIC (X.maltophilia 1AC739): > 32 µg/mL
- MIC (E.cloacae 908R): 16 µg/mL (≈ 29.6 µM)
- MIC (E.faecalis 6): 0.25 µg/mL (≈ 0.462 µM)
- MIC (M.catarrhalis RA21): > 16 µg/mL
- MIC (E.coli 25922): 0.25 µg/mL (≈ 0.462 µM)
- MIC (S.pneumoniae Q19): 0.12 µg/mL (≈ 0.222 µM)
- MIC (K.pneumoniae 418): 0.12 µg/mL (≈ 0.222 µM)
- MIC (P.mirabilis 2117): ≤ 0.06 µg/mL
- MIC (H.influenzae 1): 0.5 µg/mL (≈ 0.925 µM)
- MIC (N.meningitidis 69480): 0.12 µg/mL (≈ 0.222 µM)
- MIC (S.pyogenes B15): ≤ 0.06 µg/mL
- MIC (P.aeruginosa 27853): 32 µg/mL (≈ 59.2 µM)
- MIC (S.agalactiae QK44): 0.25 µg/mL (≈ 0.462 µM)

SMILES: Nc1nc(/C(=N/O)C(=O)N[C@@H]2C(=O)N3C(C(=O)O)=C(/C=C4\CCN(C5CC5)C4=O)CS[C@H]23)cs1 [D, [6R-[3(E),6α,7β(Z)]]-7-[[(2-Amino-4-thiazolyl)(hydroxyimino)-acetyl]amino] -3-[[1-cyclopropyl-2-oxo-3-pyrrolidinylidene]-methyl)-8-oxo-5-thia-1-azabicyclo[4.2.0]-oct-2-ene-2-carboxylic acid]
- ED50 (Escherichia coli 25922; Escherichia coli 25922, po (orally) 1 and 3 h after challenge): 3 mg/kg
- ED50 (Escherichia coli 25922; Escherichia coli, E.coli 25922, sc 1 and 3 h after challenge): ≤ 0.1 mg/kg
- ED50 (S.aureus Smith): < 1 mg/kg
- MIC (E.faecalis [1]): 1 to 2 µg/mL (≈ 1.98 to 3.96 µM)
- MIC50 (E.faecalis [1]): 1 µg/mL (≈ 1.98 µM)
- MIC90 (E.faecalis [1]): 2 µg/mL (≈ 3.96 µM)
- MIC (S.aureus MRSA): 16 to 32 µg/mL (≈ 31.7 to 63.4 µM)
- MIC50 (S.aureus MRSA): 16 µg/mL (≈ 31.7 µM)
- MIC90 (S.aureus MRSA): 16 µg/mL (≈ 31.7 µM)
- MIC (S.aureus MSSA; MIC range): 0.5 to 1 µg/mL (≈ 0.991 to 1.98 µM)
- MIC50 (S.aureus MSSA): 1 µg/mL (≈ 1.98 µM)
- MIC90 (S.aureus MSSA): 1 µg/mL (≈ 1.98 µM)
- MIC50 (S.viridans group): 2 µg/mL (≈ 3.96 µM)
- MIC90 (S.viridans group): 2 µg/mL (≈ 3.96 µM)
- MIC (S.viridans group; MIC range): 0.12 to 8 µg/mL (≈ 0.238 to 15.9 µM)
- MIC (S.pneumoniae PEN-R; [3]): 0.12 to 0.5 µg/mL (≈ 0.238 to 0.991 µM)
- MIC (S.pneumoniae PEN-R; medium IsoB + 20% serum): 0.12 to 0.5 µg/mL
- MIC50 (S.pneumoniae PEN-R; [3]): 0.25 µg/mL (≈ 0.495 µM)
- MIC90 (S.pneumoniae PEN-R; [3]): 0.5 µg/mL (≈ 0.991 µM)
- MIC50 (S.pneumoniae PEN-R; medium IsoB + 20% serum): 0.5 µg/mL
- MIC (E.faecalis [2]; MIC range): 0.25 to 2 µg/mL (≈ 0.495 to 3.96 µM)
- MIC50 (E.faecalis [2]): 1 µg/mL (≈ 1.98 µM)
- MIC90 (E.faecalis [2]): 2 µg/mL (≈ 3.96 µM)
- MIC (M.catarrhalis; MIC range): 1 to 32 µg/mL (≈ 1.98 to 63.4 µM)
- MIC50 (M.catarrhalis): 4 µg/mL (≈ 7.93 µM)
- MIC90 (M.catarrhalis): 16 µg/mL (≈ 31.7 µM)
- MIC (E.faecium; MIC range): 1 to 32 µg/mL (≈ 1.98 to 63.4 µM)
- MIC50 (E.faecium): 4 µg/mL (≈ 7.93 µM)
- MIC (M.morganii 6H-137): ≤ 0.06 µg/mL
- MIC (S.aureus 6538): 0.5 µg/mL (≈ 0.991 µM)
- MIC (E.cloacae 908SSi): 0.12 µg/mL (≈ 0.238 µM)
- MIC (P.vulgaris 1028): 1 µg/mL (≈ 1.98 µM)
- MIC (S.viridans group 016): 1 µg/mL (≈ 1.98 µM)
- MIC (S.aureus 734 MRSA): 16 µg/mL (≈ 31.7 µM)
- MIC (S.marcescens 69438): 0.5 µg/mL (≈ 0.991 µM)
- MIC (Acinetobacter sp.51-156): 16 µg/mL (≈ 31.7 µM)
- MIC (C.freundii 43): 2 µg/mL (≈ 3.96 µM)
- MIC (C.freundii 902): ≤ 0.06 µg/mL
- MIC (X.maltophilia 1AC739): > 32 µg/mL
- MIC (E.cloacae 908R): 8 µg/mL (≈ 15.9 µM)
- MIC (E.faecalis 6): 1 µg/mL (≈ 1.98 µM)
- MIC (M.catarrhalis RA21): 8 µg/mL (≈ 15.9 µM)
- MIC (E.coli 25922): ≤ 0.06 µg/mL
- MIC (S.pneumoniae Q19): ≤ 0.06 µg/mL
- MIC (K.pneumoniae 418): ≤ 0.06 µg/mL
- MIC (P.mirabilis 2117): ≤ 0.06 µg/mL
- MIC (H.influenzae 1): 0.25 µg/mL (≈ 0.495 µM)
- MIC (N.meningitidis 69480): ≤ 0.06 µg/mL
- MIC (S.pyogenes B15): ≤ 0.06 µg/mL
- MIC (P.aeruginosa 27853): 8 µg/mL (≈ 15.9 µM)
- MIC (S.agalactiae QK44): 0.25 µg/mL (≈ 0.495 µM)
